Assay results taken from PubChem BioAssay AID1963851 (Molecular Pharmacology Branch, DTP, NCI, 2024).

System: 188146-221-R-J1-PDC complex spheroid viability
Experiment: Anticancer human tumor 188146-221-R-J1-PDC patient-derived colon adenocarcinoma cell line growth inhibition [POLQ]
Conditions: for IC50: curve of first compound; for viability, T/C: stronger effect = lower value
Experimental: Multicellular complex tumor spheroid response to Polymerase (POL) inhibitors (novobiocin, ART-558, RP6685) in combination with a variety of drugs and investigational agents in selected tumor cell lines
The POL inhibitors (novobiocin, ART-558, and RP6685) were evaluated both individually and in combination with standard of care and investigational anticancer small molecules within a complex spheroid model of solid tumors. . Complex spheroids include a stromal component modeled by human endothelial cells (HUVEC) and fibroblasts modeled by human mesenchymal stem cells (MSCs). The concentration ranges selected for each drug and investigational agent were based upon clinically achievable concentrations if the clinical Cmax of the agent was known.
Compounds. The drugs and investigational agents: novobiocin (NSC847541), ART-558 (NSC835418), RP-6685 (NSC848927), peposertib (NSC802822), ceralasertib (NSC780249), elimusertib (NSC800525), camonsertib (NSC841442), AZD-1390 (NSC803789), olaparib (NSC753686), talazoparib (NSC767125), rucaparib (NSC756644), sotorasib (NSC818433), MRTX-1133 (NSC836407), SN-38 (NSC673596), topotecan (NSC609699), epotoside (NSC141540), doxorubicin (NSC123127), gemcitabine (NSC613327), 5-fluorouracil (NSC19893), paclitaxel (NSC125973), vemurafenib (NSC761431), MSA-2 (NSC828583), SN-011 (NSC837082), adavosertib (NSC754352), prexasertib (NSC758257), carboplatin (NSC241240) and oxaliplatin (NSC266046), were obtained from the National Cancer Institute (NCI) Developmental Therapeutics Program Chemical Repository (21). The FDA-approved anticancer drug set is available from the Developmental Therapeutics Program at https://dtp.cancer.gov/organization/dscb/obtaining/. […] The stock solutions were prepared in dimethyl sulfoxide (DMSO, Sigma-Aldrich, St. Louis, MO, cat. D2650), except for the platinum compounds which were prepared in saline (Quality Biological, Gaithersburg, MD, cat. 114-055-101), at 800-fold the tested concentration and stored at -70 degrees C prior to their use. All drugs and investigational agents were tested over a range starting from a high concentration at or near the clinical Cmax and decreasing in half-log increments. If the clinical Cmax for an agent had not been determined, the highest concentration tested was 10 microM, except for SN-38, which was tested at a high concentration of 1 microM.
Cell Culture. All cells were maintained in an incubator at 37 degrees C and 5% CO2 with 95% humidity. The PDC lines were cultured according to standard operating procedures established by the NCI PDMR (https://pdmr.cancer.gov). Table 3 of the manuscript, lists the cell lines along with the number of the three cell types plated to form the mct-spheroids and media for tumor cell growth. After thawing, all PDC lines, except 997537-175-T-J1-PDC and 415267-285-R-J2-PDC, were cultured in Matrigel-coated flasks prepared with a working solution of 1X Ham's F-12 nutrient mix, without supplementation (Thermo Fisher Scientific, cat. 11765054), 100 U/mL penicillin-streptomycin (Thermo Fisher Scientific, cat. 15140122), and 2.5% Matrigel (Corning Inc., Corning, NY, cat. 354248) for the first three passages. The two PDC lines 997537-175-T-J1-PDC and 415267-285-R-J2-PDC were cultured on uncoated flasks. The 857933-349-R-J2-PDC line was cultured in 6C/Colon 1B media containing advanced DMEM/F-12 (Thermo Fisher Scientific, cat. 12634028), 10 mM HEPES (Thermo Fisher Scientific, cat. 15630080), 1X GlutaMAX supplement (Thermo Fisher Scientific, cat. 35050061), 0.1 mg/mL primocin (InvivoGen, San Diego, CA, cat. ant-pm-2), 10% defined fetal bovine serum, heat inactivated (HyClone Laboratories Inc., Logan, UT, cat. SH30070.03HI), 50% L-WRN conditioned media (ATCC, cat. CRL-3276), 1.25 mM N-Acetyl-L-cysteine (Sigma-Aldrich, cat. A9165), 10 mM nicotinamide (Sigma-Aldrich, cat. N0636), 1X B-27 supplement (Thermo Fisher Scientific, cat. 17504044), 1X N-2 supplement (Thermo Fisher Scientific, cat. […]

[1] = second compound 0.0316 µM, first compound 0.0316 µM
[2] = second compound 0.0316 µM, first compound 0.1 µM
[3] = second compound 0.0316 µM, first compound 0.316 µM
[4] = second compound 0.0316 µM, first compound 1 µM
[5] = second compound 0.0316 µM, first compound 3.16 µM
[6] = second compound 0.0316 µM, first compound 10 µM
[7] = second compound 0.1 µM, first compound 0.0316 µM
[8] = second compound 0.1 µM, first compound 0.1 µM
[9] = second compound 0.1 µM, first compound 0.316 µM
[10] = second compound 0.1 µM, first compound 1 µM
[11] = second compound 0.1 µM, first compound 3.16 µM
[12] = second compound 0.1 µM, first compound 10 µM
[13] = second compound 0.316 µM, first compound 0.0316 µM
[14] = second compound 0.316 µM, first compound 0.1 µM
[15] = second compound 0.316 µM, first compound 0.316 µM
[16] = second compound 0.316 µM, first compound 1 µM
[17] = second compound 0.316 µM, first compound 3.16 µM
[18] = second compound 0.316 µM, first compound 10 µM
[19] = second compound 1 µM, first compound 0.0316 µM
[20] = second compound 1 µM, first compound 0.1 µM
[21] = second compound 1 µM, first compound 0.316 µM
[22] = second compound 1 µM, first compound 1 µM
[23] = second compound 1 µM, first compound 3.16 µM
[24] = second compound 1 µM, first compound 10 µM
[25] = second compound 3.16 µM, first compound 0.0316 µM
[26] = second compound 3.16 µM, first compound 0.1 µM
[27] = second compound 3.16 µM, first compound 0.316 µM
[28] = second compound 3.16 µM, first compound 1 µM
[29] = second compound 3.16 µM, first compound 3.16 µM
[30] = second compound 3.16 µM, first compound 10 µM
[31] = second compound 10 µM, first compound 0.0316 µM
[32] = second compound 10 µM, first compound 0.1 µM
[33] = second compound 10 µM, first compound 0.316 µM
[34] = second compound 10 µM, first compound 1 µM
[35] = second compound 10 µM, first compound 3.16 µM
[36] = second compound 10 µM, first compound 10 µM
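Further: spheroids exposed to compounds for seven days.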
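Wherever viability, T/C is given: 100% = DMSO vehicle control viability.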

## CC1COCCN1c1cc(C2(S(C)(=N)=O)CC2)nc(-c2ccnc3[nH]ccc23)n1 (centres undefined) + Nc1ccc(C#CCN(C(=O)Cc2ncc(C(F)(F)F)cc2C(F)(F)F)c2ccc(F)cc2)nn1
Second compound 0.0316 µM
  IC50: 4.63 µM
Second compound 0.1 µM
  IC50: 4.5 µM
Second compound 0.316 µM
  IC50: 4.59 µM
Second compound 1 µM
  IC50: 4.55 µM
Second compound 3.16 µM
  IC50: 4.66 µM
Second compound 10 µM
  IC50: 4.11 µM
[1]
  viability, T/C: 105%
[2]
  viability, T/C: 110%
[3]
  viability, T/C: 95.7%
[4]
  viability, T/C: 100%
[5]
  viability, T/C: 61.2%
[6]
  viability, T/C: 27.2%
[7]
  viability, T/C: 106%
[8]
  viability, T/C: 92.6%
[9]
  viability, T/C: 109%
[10]
  viability, T/C: 92.1%
[11]
  viability, T/C: 60.5%
[12]
  viability, T/C: 26.9%
[13]
  viability, T/C: 110%
[14]
  viability, T/C: 109%
[15]
  viability, T/C: 99.7%
[16]
  viability, T/C: 101%
[17]
  viability, T/C: 61.9%
[18]
  viability, T/C: 24.8%
[19]
  viability, T/C: 95.1%
[20]
  viability, T/C: 89.7%
[21]
  viability, T/C: 111%
[22]
  viability, T/C: 89.2%
[23]
  viability, T/C: 63.3%
[24]
  viability, T/C: 22.2%
[25]
  viability, T/C: 103%
[26]
  viability, T/C: 109%
[27]
  viability, T/C: 93.3%
[28]
  viability, T/C: 82.7%
[29]
  viability, T/C: 65.3%
[30]
  viability, T/C: 24.1%
[31]
  viability, T/C: 107%
[32]
  viability, T/C: 99.6%
[33]
  viability, T/C: 101%
[34]
  viability, T/C: 90%
[35]
  viability, T/C: 58.1%
[36]
  viability, T/C: 22.1%

## CCc1cc2c(N3CCc4c(cc(Cn5ccnc5)cc4-c4cn(C)nc4C(F)(F)F)C3=O)ccnc2c(OC)n1 + Nc1ccc(C#CCN(C(=O)Cc2ncc(C(F)(F)F)cc2C(F)(F)F)c2ccc(F)cc2)nn1
Second compound 0.0316 µM
  IC50: > 10 µM
Second compound 0.1 µM
  IC50: 9.81 µM
Second compound 0.316 µM
  IC50: > 10 µM
Second compound 1 µM
  IC50: 9.79 µM
Second compound 3.16 µM
  IC50: > 10 µM
Second compound 10 µM
  IC50: > 10 µM
[1]
  viability, T/C: 105%
[2]
  viability, T/C: 107%
[3]
  viability, T/C: 90.8%
[4]
  viability, T/C: 93.7%
[5]
  viability, T/C: 73%
[6]
  viability, T/C: 54.6%
[7]
  viability, T/C: 110%
[8]
  viability, T/C: 116%
[9]
  viability, T/C: 87.9%
[10]
  viability, T/C: 104%
[11]
  viability, T/C: 82.3%
[12]
  viability, T/C: 48.6%
[13]
  viability, T/C: 119%
[14]
  viability, T/C: 108%
[15]
  viability, T/C: 101%
[16]
  viability, T/C: 91.4%
[17]
  viability, T/C: 75.6%
[18]
  viability, T/C: 51.3%
[19]
  viability, T/C: 113%
[20]
  viability, T/C: 101%
[21]
  viability, T/C: 85.8%
[22]
  viability, T/C: 95.6%
[23]
  viability, T/C: 72.4%
[24]
  viability, T/C: 48.2%
[25]
  viability, T/C: 106%
[26]
  viability, T/C: 91%
[27]
  viability, T/C: 94.1%
[28]
  viability, T/C: 87.8%
[29]
  viability, T/C: 87.1%
[30]
  viability, T/C: 50%
[31]
  viability, T/C: 110%
[32]
  viability, T/C: 113%
[33]
  viability, T/C: 107%
[34]
  viability, T/C: 82.5%
[35]
  viability, T/C: 71.2%
[36]
  viability, T/C: 52.5%
